From patent US20230058623A1, “NOVEL HETEROARYL-TRIAZOLE COMPOUNDS AS PESTICIDES” (Bayer Aktiengesellschaft, priority 2019, published 2023)

Experiments:
Assay type in all cases: in vivo
[1] = test system: adult unfed cat fleas (Ctenocephalides felis); test: Ctenocephalides felis oral test; settings: 48 h, read-out: activity (mortality)
Summary of the method: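 About 20 adult unfed cat fleas fed through parafilm on citrated cattle blood containing compound (from a DMSO concentrate). Blood held at 37° C, fleas at room temperature. Mortality in % scored after 2 days.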

[2] = test system: cattle ticks (Rhipicephalus microplus) strain Parkhurst, SP-resistant; test: Rhipicephalus (Boophilus) microplus dip test; settings: 168 h, application rate 100 ppm, egg deposition after 7 days, read-out: activity (efficacy: infertile eggs)
Protocol: Rhipicephalus (Boophilus) microplus—Dip Test
Test animal: cattle ticks (Rhipicephalus microplus) strain Parkhurst, SP-resistant
Solvent: dimethyl sulfoxide
To produce a suitable preparation of active compound, 10 mg of active compound are dissolved in 0.5 mL solvent, and the concentrate is diluted with water to the desired concentration.
This compound solution is pipetted into tubes. 8-10 engorged, adult, female cattle ticks (Rhipicephalus microplus) are placed in perforated tubes. These tubes are immersed in the aqueous compound solution until the ticks are completely moistened. After the liquid has drained off, the ticks are transferred to a filter paper in a plastic tray and stored in a climate chamber.
After 7 days egg deposition of fertile eggs is monitored. Eggs where fertility is not visible are stored in a climate chamber till hatching after about 42 days. An efficacy of 100% means all eggs are infertile; 0% means all eggs are fertile.

[3] = test system: adult cat fleas (Ctenocephalides felis); test: Ctenocephalides felis in-vitro contact test, adult cat flea; settings: application rate 5 μg/cm^2 (=500 g/ha), after 48 hours, read-out: activity (efficacy: fleas dead or moribund)
Summary of the method: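 After 48 h of room-temperature exposure in tubes whose walls carried dried compound residue (5 μg/cm^2, from 900 ppm acetone solution), adult cat fleas (5-10 per tube) were heat-challenged at 45-50° C up to 5 min. Fleas unable to climb away were counted dead or moribund, expressed as % efficacy.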

[4] = test system: fall armyworm larvae (Spodoptera frugiperda); test: Spodoptera frugiperda spray test; settings: 168 h, application rate 100 g/ha, after 7 days, maize leaf sections
Summary of the method: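 Leaf-spray assay on maize: sections treated with active ingredient at the desired concentration in emulsifier-containing water (1000 ppm) and, once dry, exposed to armyworm caterpillars. Kill rate is expressed in percent after seven days.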

[5] = test system: larvae of the southern green stink bug (Nezara viridula); test: Nezara viridula spray test; settings: 96 h, application rate 500 g/ha, after 4 days, barley plants, read-out: activity (mortality)
Summary of the method: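 Barley plants sprayed with the active compound in emulsifier-containing water, then infested with stink bug larvae. Mortality scored in % after 4 days, with 100% meaning all insects killed.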

[6] = test system: green peach aphid (Myzus persicae); test: Myzus persicae oral test; settings: 120 h, read-out: activity (mortality)
Summary of the method: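 Aphids of mixed population ingest the compound preparation by sucking through a parafilm sheet stretched over wells holding test solution plus IPL41 insect medium (33%+15% sugar). Kill rate in percent is determined five days later.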

[7] = test system: adult mosquitoes Aedes aegypti strain MONHEIM; test: Aedes aegypti test (AEDSAE surface treatment & contact assay); settings: 24 hours after contact, read-out: efficacy (mortality); for mortality at 20 mg/m2: surface concentration 20 mg/m^2, exposure 30 minutes
Summary of the method: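 Compound in acetone (2 mg/ml) with 2000 ppm RME dried onto glazed tile; adults exposed to the treated surface for 30 min. Percent mortality scored 24 h after contact.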

[8] = test system: green peach aphid (Myzus persicae); test: Myzus persicae spray test; settings: foliar, 120 h, after 5 days, Chinese cabbage leaf disks; for mortality at 100 g/ha: application rate 100 g/ha, read-out: activity (mortality)
Summary of the method: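 Percent kill was recorded 5 days after spraying. Test solutions, prepared with solvent and diluted in 1000 ppm emulsifier water, were applied to Brassica pekinensis leaf disks carrying mixed-instar green peach aphids.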

[9] = test system: brown planthopper (Nilaparvata lugens); test: Nilaparvata lugens spray test; settings: 96 h, application rate 500 g/ha, after 4 days, rice plants
Protocol: Nilaparvata lugens—Spray Test
To produce a suitable preparation of active compound, 1 part by weight of active compound is mixed with the stated amount of solvents and is diluted with water, containing an emulsifier concentration of 1000 ppm, to the desired concentration. Further test concentrations are prepared by dilution with emulsifier containing water.
Rice plants (Oryza sativa) are sprayed with a preparation of the active ingredient of the desired concentration and the plants are infested with the brown planthopper (Nilaparvata lugens).
After 4 days mortality in % is determined. 100% means all planthoppers have been killed and 0% means none of the planthoppers have been killed.

[10] = test system: adult engorged female ticks (Rhipicephalus microplus); test: Rhipicephalus (Boophilus) microplus injection test; settings: 168 h, application rate 4 μg/tick, egg deposition after 7 days, read-out: activity (efficacy: infertile eggs)
Summary of the method: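 Compound in DMSO (10 mg per 0.5 mL, then diluted with DMSO to test concentration); 1 μL injected into the abdomen of each of five engorged females, then held in a climate chamber. Fertile egg deposition checked at 7 days; efficacy 100% = all eggs infertile, 0% = all fertile.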

[11] = test system: larvae of the banded cucumber beetle (Diabrotica balteata); test: Diabrotica balteata spray test; settings: 168 h, after 7 days, wheat seeds, read-out: activity (efficacy: seedlings grown); for pest or weed control at 32 µg/disc, 100 g/ha: application rate 100 g/ha (=32 μg/well)
Summary of the method: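 Efficacy (%) read 7 days after infesting treated seedlings with 10-20 banded cucumber beetle larvae, 100% meaning growth as in uninfected untreated control and 0% no growth. Test solutions in water containing 1000 ppm emulsifier were sprayed onto wheat seeds germinated for 1 day on agar.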

[12] = test system: Rhipicephalus (Boophilus) microplus larvae (strain Parkhurst, resistant against synthetic pyrethroids); test: Rhipicephalus (Boophilus) microplus in-vitro contact test, larval cattle tick; settings: after 48 hours, read-out: activity (efficacy: larvae dead or moribund); for pest or weed control at 1 µg/cm2, 100 g/ha: application rate 1 μg/cm^2 (=100 g/ha); for pest or weed control at 5 µg/cm2, 500 g/ha: application rate 5 μg/cm^2 (=500 g/ha)
Summary of the method: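 Pyrethroid-resistant Parkhurst larvae, 20–50 per tube, were kept 48 h at 27 °C and 85% relative humidity in glass tubes whose inner walls carried a dried acetone film of compound (900 ppm giving 5 μg/cm^2). Dead or moribund larvae, judged by loss of negative geotactic behavior, set percent efficacy.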

[13] = test system: southern root-knot nematode (Meloidogyne incognita); test: Meloidogyne incognita test; settings: application rate 20 ppm; after 14 days
Protocol: Meloidogyne incognita—Test
Solvent: 125.0 parts by weight of acetone
To produce a suitable preparation of active compound, 1 part by weight of active compound is mixed with the stated amount of solvent, and the concentrate is diluted with water to the desired concentration.
Vessels are filled with sand, a solution of the active ingredient, a suspension containing eggs and larvae of the southern root-knot nematode (Meloidogyne incognita) and salad seeds. The salad seeds germinate and the seedlings grow. Galls develop in the roots.
After 14 days the nematicidal activity is determined based on the percentage of gall formation. 100% means no galls were found and 0% means the number of galls found on the roots of the treated plants was equal to that in untreated control plants.

[14] = test system: adult brown dog ticks (Rhipicephalus sanguineus); test: Rhipicephalus sanguineus in-vitro contact test, adult brown dog ticks; settings: application rate 5 μg/cm^2 (=500 g/ha), after 48 hours, read-out: activity (efficacy: ticks dead or moribund)
Summary of the method: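 Glass tubes are coated with compound dissolved in acetone, a 900 ppm solution yielding 5 μg/cm^2 on the inner surface. Adult ticks (5-10 per tube) are kept on the dry film at room temperature for 48 h, then those unable to escape 45-50° C heat are counted as dead or moribund.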

[15] = test system: adult mosquitoes Anopheles funestus strain FUMOZ-R; test: Anopheles funestus test (ANPHFU surface treatment & contact assay); settings: surface concentration 20 mg/m^2, exposure 30 minutes, 24 hours after contact, read-out: efficacy (mortality)
Protocol: Anopheles funestus Test (ANPHFU Surface Treatment & Contact Assay)
Solvent: Aceton+2000 ppm rapeseed oil methyl ester (RME)
In order to produce a sufficient, active ingredient containing solution it is necessary to solve the test compound in the solvent-mix (acetone at 2 mg/ml/RME 2000 ppm). This solution is pipetted onto a glazed tile and after evaporation of the acetone, adult mosquitoes of the species Anopheles funestus strain FUMOZ-R (Hunt et al., Med. Vet. Entomol. 2005 September; 19(3): 271-275) are placed onto the dried surface. The exposure time is 30 minutes.
Mortality in percent (%) is determined 24 hours after contact of the insects to the treated surface. 100% mortality means that all tested insects are dead, whereas 0% means that no insect died.

[16] = test system: adult flies Musca domestica strain WHO-N; test: Musca domestica test (MUSCDO surface treatment & contact assay); settings: surface concentration 20 mg/m^2, exposure 30 minutes, 24 hours after contact, read-out: efficacy (mortality)
Summary of the method: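 Compound dissolved at 2 mg/ml in acetone with 2000 ppm RME, applied to glazed tile and dried; adult flies exposed on the surface for 30 min. Percent mortality scored 24 h after contact.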

| SMILES | mortality at 100 ppm [1] | pest or weed control at 100 ppm [2] | pest or weed control at 5 µg/cm2 [3] | mortality at 100 g/ha [4] | mortality at 500 g/ha [5] | mortality at 4 ppm [6] | mortality at 4 mg/m2 ([7]; surface concentration 4 mg/m^2, exposure 30 minutes) | mortality at 20 mg/m2 [7] | mortality at 100 g/ha [8] | mortality at 500 g/ha ([8]; application rate 500 g/ha) | mortality at 500 g/ha [9] | pest or weed control at 0.004 mg [10] | pest or weed control at 160 µg/disc, 500 g/ha ([11]; application rate 500 g/ha (=160 μg/well)) | pest or weed control at 1 µg/cm2, 100 g/ha [12] | pest or weed control at 5 µg/cm2, 500 g/ha [12] | activity (nematicidal activity based on gall formation) [13] | pest or weed control at 5 µg/cm2, 500 g/ha [14] | mortality at 20 mg/m2 [15] | mortality at 20 mg/m2 [16] | pest or weed control at 32 µg/disc, 100 g/ha [11] |
| --- | --- | --- | --- | --- | --- | --- | --- | --- | --- | --- | --- | --- | --- | --- | --- | --- | --- | --- | --- | --- |
| C[C@H](NC(=O)c1cc(Cl)cc(C(F)(F)F)c1)c1ncnn1-c1ccc(C(=O)N2CCOCC2)cn1 [Example I-1] | 100% | 80% | 100% | 100% | 100% | 100% | 80 to 100% | 80 to 100% | 100% | 100% | 100% | 100% | 100% |  |  |  |  |  |  |  |
| C[C@H](NC(=O)c1cc(C(F)(F)F)cc(C(F)(F)F)c1)c1ncnn1-c1ccc(C(=O)N2CCC(O)C2)cn1 (some centres unmarked) [Example I-13] | 100% | 80% |  |  |  | 100% |  |  | 100% |  |  | 100% |  | 100% | 100% |  |  |  |  |  |
| COC1CCN(C(=O)c2ccc(-n3ncnc3[C@H](C)NC(=O)c3cc(Cl)cc(C(F)(F)F)c3)nc2)CC1 [Example I-30] |  |  | 80% |  |  | 100% |  |  | 90% |  |  | 100% |  | 100% | 100% | 90% |  |  |  |  |
| Cc1nc([C@H](C)NC(=O)c2cc(C(F)(F)F)cc(C(F)(F)F)c2)n(-c2ccc(C(=O)N3C[C@@H](C)O[C@H](C)C3)cn2)n1 [Example I-47] | 90% | 100% | 100% | 100% |  | 100% |  |  | 100% |  |  | 100% |  | 100% | 100% |  | 100% |  |  |  |
| C[C@H](NC(=O)c1cc(C(F)(F)F)cc(C(F)(F)F)c1)c1ncnn1-c1ccc(C(=O)N2CCN(C)C(=O)C2)cn1 [Example I-79] |  |  |  | 100% | 100% | 100% |  | 80 to 100% |  |  | 100% |  |  |  |  |  |  | 80 to 100% | 80 to 100% |  |
| C[C@H](NC(=O)c1cc(C(F)(F)F)cc(C(F)(F)F)c1)c1nc(C2CC2)nn1-c1ccc(C(=O)N2CCOCC2)cn1 [Example I-88] |  |  | 100% | 100% | 100% |  |  | 80 to 100% | 90% |  |  |  |  | 100% | 100% | 100% | 100% |  | 80 to 100% | 100% |
| Cc1nc([C@H](C)NC(=O)c2cc(C(F)(F)F)cc(C(F)(F)F)c2)n(-c2ncc(C(=O)N3C[C@@H](C)O[C@@H](C)C3)s2)n1 [Example I-107] | 100% | 100% |  | 100% |  | 100% |  |  |  |  |  | 100% |  | 100% | 100% |  | 100% |  | 80 to 100% | 100% |
